The text below walks through data of PubChem BioAssay AID1645864 (Buhrlage Lab, Dana-Farber Cancer Institute and Novartis …, 2021).

A word on the IC50: it is the concentration that inhibits the measured activity by half.

Calls of active or inactive are those of the source.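 How the source made its calls: active means maximal inhibition of USP17 at or above 30% in the confirmation dose-response, a value not among the printed readouts; inactive means the rest.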

Ubiquitin carboxyl-terminal hydrolase 17-like protein 5 (Homo sapiens), sequence (A8MUK1 whole entry, looked up): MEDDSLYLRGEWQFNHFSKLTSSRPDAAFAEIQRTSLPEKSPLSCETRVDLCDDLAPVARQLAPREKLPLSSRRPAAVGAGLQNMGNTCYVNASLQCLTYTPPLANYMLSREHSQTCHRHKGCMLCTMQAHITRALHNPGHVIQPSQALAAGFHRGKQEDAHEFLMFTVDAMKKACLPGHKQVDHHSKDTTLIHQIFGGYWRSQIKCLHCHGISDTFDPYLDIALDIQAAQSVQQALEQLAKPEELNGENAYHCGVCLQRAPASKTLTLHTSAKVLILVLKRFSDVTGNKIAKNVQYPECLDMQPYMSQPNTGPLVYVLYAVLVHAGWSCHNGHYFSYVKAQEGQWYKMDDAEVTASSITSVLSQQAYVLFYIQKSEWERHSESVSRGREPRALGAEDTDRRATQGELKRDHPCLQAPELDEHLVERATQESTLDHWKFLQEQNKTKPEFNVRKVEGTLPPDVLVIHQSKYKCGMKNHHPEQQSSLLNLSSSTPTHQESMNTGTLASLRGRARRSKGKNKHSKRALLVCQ

The assay addresses Ubiquitin carboxyl-terminal hydrolase 17-like protein 5 (Homo sapiens) (UniProt A8MUK1). The assay can be described thus: ubiquitin-specific protease 17 DUB inhibitors, concentration-effect assay, cell-free, verification of initial screening actives (AID 1645864). Particulars: purified USP17, ubiquitin-rhodamine cleavage fluorescence, 3 h.
In the case of `CSc1cccc(C(=O)Nc2ccc(-c3nc4ccccc4[nH]3)cc2)c1`, the IC50 was 9.57 µM.

Turning to `Cn1cc(NC(=O)Nc2cccc3ccccc23)c2ccccc21`, the IC50 was 32.7 µM.

For the molecule `O=C(NCc1ccc(F)cc1)N1CCC2(C1)Nc1cccnc1NC2=NCc1ccccc1` (centres undefined), the IC50 was > 50 µM (inactive).

Regarding `CN(C(=O)CSc1nnc(-c2cc3ccccc3n2C)o1)c1ccccc1`, the IC50 was > 50 µM (inactive).

For `CC1(C(=O)NC2CCCC2)Cn2c(cc3ccccc32)C(=O)N1c1ccc(F)cc1` (centres undefined), the IC50 is 30.9 µM.

On to `COC(=O)c1ccc2c(=O)n(CCCCCC(=O)NCc3cccc(Cl)c3)c(=O)[nH]c2c1`, for which the IC50 is 2.36 µM.

Consider `Cc1cc(C(=O)Nc2ccc3c(c2)OCCO3)no1`, for which the IC50 was > 50 µM (inactive).

`COc1cc(NC(=O)Cn2c(=O)n(-c3ccc(CC(=O)NC4CCCC4)cc3)c(=O)c3ccccc32)cc(OC)c1`: the IC50 is > 5 µM (inactive).

For `Cc1c(-c2ccc(C#N)cc2)oc2ccc(Br)cc2c1=O`, the IC50 is 2.88 µM.

In the case of `CCOc1ccc(NC(=O)CSc2nc3n[nH]c(C)c3c(=N)n2-c2ccc(OC)cc2)cc1`, the IC50 was > 50 µM (inactive).

As to `COc1ccc(NC2c3ccccc3C(=O)N2c2ccccn2)cc1` (centres undefined), the IC50 was > 50 µM (inactive).

For the molecule `Cn1c(CN2CCCCCC2)nc2cc(NC(=O)c3ccccc3)ccc21`, the IC50 is > 50 µM (inactive).

Regarding `Cc1nn(-c2nc3ccccc3[nH]2)c2c1C(c1cccs1)CC(=O)N2` (centres undefined), the IC50 is > 50 µM (inactive).

Turning to `NS(=O)(=O)c1ccc(CNS(=O)(=O)c2ccc(-c3ccccn3)s2)cc1`, the 50% inhibitory concentration (IC50) was 23.2 µM.

On to `O=C(CSc1nnc(Cn2cnc3ccccc32)o1)Nc1ccc([N+](=O)[O-])cc1`, for which the IC50 was 21.1 µM.

For the molecule `CCOc1ccc(Nc2cc(C(=O)NCCc3ccccc3)c3ccccc3n2)cc1`, the IC50 is 24.1 µM.

For `Cc1noc(C)c1S(=O)(=O)Nc1ccc(C(=O)Nc2ccc3c(c2)OCCO3)cc1`, the IC50 is > 50 µM (inactive).

For the molecule `CCc1ccc2[nH]c(=O)c(CN(CCc3ccc(OC)c(OC)c3)C(=O)Nc3ccccc3)cc2c1`, the IC50 is > 50 µM (inactive).

Turning to `Cc1cccc(NC(=O)CN2C(=O)CC(c3ccccc3)S(=O)(=O)c3ccccc32)c1C` (centres undefined), the IC50 was 25.3 µM.

For `Fc1cnc(N2CC[C@H]3CO[C@H](CNc4ncccn4)[C@H]3C2)nc1`, the IC50 is > 50 µM (inactive).

Regarding `Cc1cc2nc(-c3ccc(SCc4ccccn4)nc3)[nH]c2cc1C`, the IC50 was 31.3 µM.

On to `COc1cccc(NC(=O)Nc2nccn(-c3ccc(F)cc3)c2=O)c1`, for which the IC50 was 13.9 µM.

For `Cc1cc(NCC2CC2)n2nc(Nc3cc(Cl)ccc3C)nc2n1`, the IC50 is 30.4 µM.

Take `NS(=O)(=O)c1cccc(NC(=O)CN2CCCc3ccccc32)c1`: the IC50 is > 50 µM (inactive).

For `Cc1ccc(NC(=O)c2nnn(-c3ccccc3)n2)cc1F`, the IC50 was > 50 µM (inactive).

In the case of `O=C(COC(=O)c1ccc(CN2CCCC2=O)cc1)c1ccc2c(c1)OCCO2`, the IC50 was > 50 µM (inactive).

In the case of `O=C(Nc1nc2ccccc2s1)c1ccc2c(c1)C(=O)N(Cc1cccnc1)C2=O`, the IC50 was 4.06 µM.

For `CCOc1ccccc1NC(=O)COc1cc(OC)ccc1C(=O)c1ccccc1`, the IC50 was > 50 µM (inactive).

For the molecule `O=c1c(NCCCN2CCCC2)nc2ccncc2n1Cc1ccccc1`, the IC50 is 29.3 µM.

On to `O=C(/C=C/c1cnc2ccccc2c1)NCc1ccccc1`, for which the IC50 is 43.4 µM.

Regarding `CCOC(=O)c1ccc(NC(=O)C[n+]2cc(-c3ccc(Cl)cc3)n3c2CCC3)cc1`, the IC50 was > 50 µM (inactive).

As for `CCc1ccccc1NC(=O)c1cc(-c2ccccn2)n[nH]1`, the IC50 is 31 µM.

On to `C[C@@H](C(=O)NCc1ccc(F)cc1)N1C(=O)N2CCc3c([nH]c4ccccc34)[C@@]2(C)C1=O`, for which the IC50 is 5.77 µM.

Turning to `COc1ccccc1-c1nc(-c2nnn(Cc3ccc(C)cc3)c2C)no1`, the IC50 is > 50 µM (inactive).

Consider `Cc1ccc(NC(=O)CCC(=O)Nc2ccc3nc(N4CCCCC4)cc(C)c3c2)c(Br)c1`, for which the IC50 was 49.7 µM.

As to `O=C(Nc1ccc2c(c1)OCO2)C1CCN(Cc2nc3ccccc3s2)CC1`, the IC50 is > 50 µM (inactive).

`O=C(CCc1nnc2n(Cc3ccccc3)c(=O)c3ccccc3n12)N1CCN(c2ccccn2)CC1`: the IC50 is 11.3 µM.

As to `Cc1cc(C2CC(=O)Nc3c2c(C)nn3-c2nc3ccccc3[nH]2)c(C)s1` (centres undefined), the IC50 is 23 µM.

Regarding `C/C=C(\Cl)C1=CC(=O)[C@]23C[C@H]2[C@@]2(C)CO[C@@]1(O)[C@@]3(O)O2`, the half-inhibitory concentration (IC50) is 28.2 µM.

Turning to `Cc1cccc(C(=O)Nc2cccc(SC(C(=O)Nc3ccc(O)c(C(=O)O)c3)c3ccccc3)c2)c1` (centres undefined), the IC50 is 11.5 µM.

As for `O=C(c1ccc2cc[nH]c2c1)N1CCC(Nc2cccnc2)C1` (centres undefined), the IC50 was > 50 µM (inactive).

In the case of `O=C(NCc1nc2ccccc2[nH]1)c1cccc(S(=O)(=O)N2CCc3ccccc32)c1`, the IC50 was > 50 µM (inactive).

Consider `Cc1ccc(NC2=NC(c3ccco3)n3c(nc(C)cc3=O)N2)c(C)c1` (centres undefined), for which the IC50 was 4.62 µM.

`COc1ccc2[nH]cc(S(=O)(=O)c3ccc(C)c(F)c3)c(=O)c2c1`: the IC50 is 48 µM.

Consider `O=C(Nc1cccc(Cl)c1)N1CCN(c2cc(C(F)(F)F)ccn2)CC1`, for which the IC50 was 12.3 µM.

As for `O=C(Cn1ncc2c(N3CCCCCC3)ncnc21)NCc1ccccc1`, the IC50 was > 50 µM (inactive).

Regarding `Cc1cccc(C(=O)Nc2cccc(SC(C(=O)Nc3ccc(Cl)c(C(=O)O)c3)c3ccccc3)c2)c1` (centres undefined), the IC50 was 15.2 µM.

For `Cc1ccc(N=Cc2sc(O)c3ccccc23)c(C)c1`, the IC50 is > 50 µM (inactive).

For `N#Cc1ccc(Cn2nnc(-c3cccc(Cl)c3)n2)cc1`, the IC50 is > 50 µM (inactive).

`O=C(Nc1cc(-c2cccnc2)no1)c1ccc(F)c(F)c1`: the IC50 was 19.3 µM.

Take `O=C(COc1ccc(Cl)cc1)Nc1noc(-c2ccccc2)n1`: the IC50 was 22.6 µM.

Consider `Cc1c(-c2nc(-c3ccccc3Cl)no2)nnn1-c1cccc(F)c1`, for which the IC50 was 6.66 µM.

On to `Cc1ccc(Cl)c(-n2nnc(C(=O)Nc3ccccc3C#N)c2C)c1`, for which the IC50 is 4.85 µM.

Consider `O=C(CC1Oc2ccccc2NC1=O)Nc1ccccc1Br` (centres undefined), for which the IC50 was 33.4 µM.

As for `CC(C)Cc1nc2oc3c(N(C)CCO)ncnc3c2c2c1CCC2`, the IC50 is > 50 µM (inactive).

In the case of `CC1CCN(c2cc(-n3cnc(C(=O)N4CCCC(C)C4)c3)ncn2)CC1` (centres undefined), the IC50 was > 50 µM (inactive).

For the molecule `Cc1c(CC(=O)N2CCN(c3ncccn3)CC2)c(=O)oc2cc(O)ccc12`, the IC50 is 24.7 µM.

With `CC(C)(C)c1ccc(C(=O)Nc2ccc(Oc3cccnc3)nc2)cc1`, the IC50 is > 50 µM (inactive).

Regarding `Cc1nn(Cc2ccccc2)c(Cl)c1C(=O)NC1CCCc2ccccc21` (centres undefined), the IC50 is > 50 µM (inactive).

As to `CC1CC(=O)c2c(cc3c(-c4c(O)cc(O)c5c(O)c6c(cc45)OC(C)CC6=O)c(O)cc(O)c3c2O)O1` (centres undefined), the IC50 was 0.486 µM.

For the molecule `c1ccc2c(Cc3nc(-c4ccncc4)no3)cccc2c1`, the IC50 is > 50 µM (inactive).

`COc1ccc(C(=O)Nc2ccc3c(c2)Sc2ncccc2C(=O)N3C)cn1`: the IC50 was > 50 µM (inactive).

In the case of `COc1cc2c(c(OCC(=O)Nc3ccc4c(c3)OCCO4)c1)C(=O)O[C@@H](C)CCCC(=O)CCCCC2`, the 50% inhibitory concentration (IC50) was 23.1 µM.

As for `Cc1cc(SCc2ncon2)c(C)cc1Cl`, the IC50 is > 50 µM (inactive).
